Bridge positions count the residues as written; N and C are the ends. Peptide text beside a SMILES is read from it.
B1: synthetic polypeptide … (peptide)
peptide: H-RPCDYYGTCFD-NH2
modifications: disulfide 3-9
SMILES: C[C@@H](O)[C@@H]1NC(=O)CNC(=O)[C@H](Cc2ccc(O)cc2)NC(=O)[C@H](Cc2ccc(O)cc2)NC(=O)[C@H](CC(=O)O)NC(=O)[C@@H](NC(=O)[C@@H]2CCCN2C(=O)[C@@H](N)CCCNC(=N)N)CSSC[C@@H](C(=O)N[C@@H](Cc2ccccc2)C(=O)N[C@@H](CC(=O)O)C(N)=O)NC1=O
B2: synthetic polypeptide … (peptide)
peptide: H-FACHYYGTCLH-NH2
modifications: disulfide 3-9
SMILES: CC(C)C[C@H](NC(=O)[C@@H]1CSSC[C@H](NC(=O)[C@H](C)NC(=O)[C@@H](N)Cc2ccccc2)C(=O)N[C@@H](Cc2c[nH]cn2)C(=O)N[C@@H](Cc2ccc(O)cc2)C(=O)N[C@@H](Cc2ccc(O)cc2)C(=O)NCC(=O)N[C@@H]([C@@H](C)O)C(=O)N1)C(=O)N[C@@H](Cc1c[nH]cn1)C(N)=O
B3: synthetic polypeptide … (peptide)
peptide: H-RPCNYYGTCLH-NH2
modifications: disulfide 3-9
SMILES: CC(C)C[C@H](NC(=O)[C@@H]1CSSC[C@H](NC(=O)[C@@H]2CCCN2C(=O)[C@@H](N)CCCNC(=N)N)C(=O)N[C@@H](CC(N)=O)C(=O)N[C@@H](Cc2ccc(O)cc2)C(=O)N[C@@H](Cc2ccc(O)cc2)C(=O)NCC(=O)N[C@@H]([C@@H](C)O)C(=O)N1)C(=O)N[C@@H](Cc1c[nH]cn1)C(N)=O

biological target: DD(E) soluble fibrin-derived polypeptide (UniProt P02671); assay: Kd against DD(E) target; conditions: not given

How did the Kd turn out when H-LPCDYYGTCLD-NH2 (disulfide 3-9 (inferred)) was run?
Its Kd is 2.6 µM.

B1 was tested. Which Kd did it give?
The Kd was 3.4 µM.

B2 was tested. Which Kd did it give?
Its Kd is 7.3 µM.

How did the Kd turn out when B3 was run?
The Kd was 4 µM.

biological target: T1, DD(E) (Homo sapiens, UniProt P02671+P02675+P02679); assay: dissociation constant against fibrin-derived polypeptide DD(E); type: binding; conditions: read-out: Kd DD(E)
T1 construct: host or cells: purchased fibrinogen clotted with thrombin, digested with plasmin, then purified by ammonium sulfate cuts and Sephacryl S200
T1 sequence (P02671 130-216): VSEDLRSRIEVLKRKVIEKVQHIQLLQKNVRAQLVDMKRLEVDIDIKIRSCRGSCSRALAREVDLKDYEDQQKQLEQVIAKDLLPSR
T1 sequence (P02675 164-491): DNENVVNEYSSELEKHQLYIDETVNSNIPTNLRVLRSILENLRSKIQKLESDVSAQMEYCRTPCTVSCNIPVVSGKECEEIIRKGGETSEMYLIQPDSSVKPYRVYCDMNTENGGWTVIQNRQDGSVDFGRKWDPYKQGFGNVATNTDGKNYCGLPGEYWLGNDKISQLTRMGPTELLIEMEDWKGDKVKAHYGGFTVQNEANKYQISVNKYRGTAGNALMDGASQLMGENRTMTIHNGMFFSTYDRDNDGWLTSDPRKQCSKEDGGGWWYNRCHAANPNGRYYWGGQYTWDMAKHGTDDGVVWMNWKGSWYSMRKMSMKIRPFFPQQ
T1 sequence (P02679 114-432): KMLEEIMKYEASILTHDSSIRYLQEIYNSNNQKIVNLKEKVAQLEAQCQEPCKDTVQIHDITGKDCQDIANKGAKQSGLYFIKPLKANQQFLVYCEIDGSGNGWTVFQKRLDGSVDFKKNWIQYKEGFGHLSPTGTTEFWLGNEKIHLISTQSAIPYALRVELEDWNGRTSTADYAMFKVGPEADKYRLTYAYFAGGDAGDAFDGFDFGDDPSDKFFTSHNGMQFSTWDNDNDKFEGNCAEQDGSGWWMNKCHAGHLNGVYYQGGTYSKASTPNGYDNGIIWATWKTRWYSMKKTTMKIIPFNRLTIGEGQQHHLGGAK
T1 sequence (P02671 36-97): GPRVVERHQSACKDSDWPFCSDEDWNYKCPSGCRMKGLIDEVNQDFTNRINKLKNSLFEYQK
T1 sequence (P02675 45-152): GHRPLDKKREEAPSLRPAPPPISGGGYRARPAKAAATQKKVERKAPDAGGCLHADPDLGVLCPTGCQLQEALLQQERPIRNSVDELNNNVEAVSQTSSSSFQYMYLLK
T1 sequence (P02679 27-88): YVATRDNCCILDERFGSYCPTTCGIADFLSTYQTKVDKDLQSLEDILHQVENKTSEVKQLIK
Procedure: The soluble fibrin-derived polypeptide DD(E) was prepared following a modification of a published method (Moskoitz and Budzynksi, Biochemistry, 33: 12937-12944 (1994) and references therein). Fibrinogen containing a Factor XIII trace impurity (1 g, Grade L; purchased from American Diagnostica) was dissolved in TBS buffer and dialyzed overnight against TBS containing 5 mM citrate. The fibrinogen concentration was adjusted to 3.0 mg/ml and CaCl2 was added to a concentration of 10 mM. Clotting of the fibrinogen was initiated by the addition of thrombin to 0.5 U/ml and the clot was incubated for 3 hours at 37° C. The clot was cut up with a spatula to release water and to concentrate the clot. The clot pieces were washed twice with TBS.Ca buffer (TBS containing 2 mM CaCl2) and were centrifuged at 4,000×g to compact the clots between washes. The clot material was resuspended in 250 ml TBS containing 25 mM CaCl2 and 2 K.I.U. plasmin per mg fibrin. The clots were digested overnight at 20° C. Undigested clot was removed by pipette, and the supernatant was shaken with 10 ml of Lysine Sepharose (Pharmacia) for 30 minutes and filtered to remove the resin. Aprotinin was added to the filtrate to a concentration of 500 U/μL. Ammonium Sulfate was added to 30% saturation and the precipitated protein was removed by centrifugation. More ammonium sulfate was added to the supernatant to a final concentration of 50% saturation, and the precipitated protein was concentrated by centrifugation. The pellets, containing DD(E), were resuspended in a small volume of buffer (50 mM Tris, 150 mM NaCl, 2 mM CaCl2) (<10 ml) and chromatographed on a Sephacryl S200 (Pharmacia) size exclusion column (5×100 cm) in the same buffer. Fractions of protein eluted from the column were assayed by SDS-PAGE for DD(E). DD(E) contains subunits of 55 kD (Fragment E) and 190 kD (Fragment DD). […]
Dissociation constants were determined against DD(E) as described above.

For CC[C@H](C)[C@H](NC(=O)[C@H](Cc1c[nH]cn1)NC(=O)[C@@H]1CSSC[C@H](NC(=O)[C@H](Cc2c[nH]cn2)NC(=O)[C@H](Cc2ccccc2)NC(=O)[C@@H](N)Cc2c[nH]c3ccccc23)C(=O)N2CCC[C@H]2C(=O)N[C@@H](Cc2ccc(O)cc2)C(=O)N[C@@H](CC(=O)O)C(=O)N[C@@H](CC(C)C)C(=O)N1)C(=O)N[C@@H](CC(C)C)C(N)=O [SEQ ID NO: 21, W F H C P Y D L C H I L] (H-WFHCPYDLCHIL-NH2; disulfide 4-9; N-terminus and C-terminus assumed), which Kd is on record?
The Kd was 2.63 µM.

How did the Kd turn out when CC(C)C[C@H](NC(=O)[C@@H]1CSSC[C@H](NC(=O)[C@@H]2CCCN2C(=O)[C@@H](N)CC(C)C)C(=O)N[C@@H](CC(=O)O)C(=O)N[C@@H](Cc2ccc(O)cc2)C(=O)N[C@@H](Cc2ccc(O)cc2)C(=O)NCC(=O)N[C@@H](C(C)C)C(=O)N1)C(=O)N[C@@H](CC(=O)O)C(N)=O [SEQ ID NO: 51, LPCDYYGVCLD] (H-LPCDYYGVCLD-NH2; disulfide 3-9) was run?
Its Kd is 28 µM.

How did the Kd turn out when CC(C)C[C@H](NC(=O)[C@@H]1CSSC[C@H](NC(=O)[C@@H]2CCCN2C(=O)[C@@H](N)CC(C)C)C(=O)N[C@@H](CC(=O)O)C(=O)N[C@@H](C)C(=O)N[C@@H](Cc2ccc(O)cc2)C(=O)NCC(=O)N[C@@H]([C@@H](C)O)C(=O)N1)C(=O)N[C@@H](CC(=O)O)C(N)=O [SEQ ID NO: 43, LPCDAYGTCLD] (H-LPCDAYGTCLD-NH2; disulfide 3-9) was run?
The Kd was 4.5 µM.

How did the Kd turn out when C[C@@H](O)[C@@H]1NC(=O)CNC(=O)[C@H](Cc2ccc(O)cc2)NC(=O)[C@H](Cc2ccc(O)cc2)NC(=O)[C@H](CC(=O)O)NC(=O)[C@@H](N)CSSC[C@@H](C(N)=O)NC1=O [compound 34] (H-CDYYGTC-NH2; disulfide 1-7) was run?
Its Kd is 38 µM.

How did the Kd turn out when CC(C)C[C@H](NC(=O)[C@@H]1CSSC[C@H](NC(=O)[C@H](C)NC(=O)[C@@H](N)CC(C)C)C(=O)N[C@@H](CC(=O)O)C(=O)N[C@@H](Cc2ccc(O)cc2)C(=O)N[C@@H](Cc2ccc(O)cc2)C(=O)NCC(=O)N[C@@H]([C@@H](C)O)C(=O)N1)C(=O)N[C@@H](CC(=O)O)C(N)=O [SEQ ID NO: 41, LACDYYGTCLD] (H-LACDYYGTCLD-NH2; disulfide 3-9) was run?
Its Kd is 2.9 µM.
